Measured values as given in patent US6608069B1, “Phenyl xanthine derivatives” (SmithKline Beecham Corporation, priority 1998, dated 2003).

tested on: cytokine-stimulated human umbilical vein endothelial cells; assay: Cell Adhesion Assay: adherence of fluorescently-labelled leukocytes to endothelial cell monolayers; format: cell-based; settings: inhibition of cytokine-stimulated adhesion minus basal adhesion; calcein-AM labelled leukocytes on HUVEC monolayers
Protocol: The antiadhesion activity of compounds of the invention was determined using a modification of the previously described method, Jurgensen, C. H. et. al., J. Immunol. 144: 653-661. The adhesiveness of cytokine-stimulated human umbilical vein endothelial cells was assessed by quantitating the adherence of fluorescently-labelled (calcein-AM, Molecular Probes, Eugene, Oreg.) leukocytes to endothelial cell monolayers. Activity was determined by calculating inhibition of cytokine-stimulated adhesion minus the basal adhesion (unstimulated).

Row | SMILES | IC50 [nM]
1 | C#CCn1c(-c2ccc(/C=C/C(=O)OCCOCCOCCOCCOCCOCCOCCOCCOCCOC)cc2)nc2c1c(=O)n(CC1CCCCC1)c(=O)n2CC1CCCCC1 [Example 80, (E)-4-(1,3-Bis(cyclohexylmethyl)-2,3,6,7-tetrahydro-2,6-dioxo-7-(2-propynyl)-1H-purin-8-yl)cinnamic Acid Nonaethylene Glycol Methyl Ether Ester] | 10 ± 4
2 | COCCOCCOCCOCCOCCOCCOCCOCCOCCOC(=O)/C=C/c1ccc(-c2nc3c(=O)n(C)c(=O)n(CC(C)C)c3[nH]2)cc1 [Example 63, (E)-4-(1-methyl-3-(2-methylpropyl)-1,2,3,6-tetrahydro-2,6-dioxo-9H-purin-8-yl)cinnamic Acid Nonaethylene Glycol Methyl Ether Ester] | 55 ± 34
3 | COCCOCCOCCN(CCOCCOCCOC)C(=O)/C=C/c1ccc(-c2nc3c(=O)n(CC4CCCCC4)c(=O)n(CC4CCCCC4)c3[nH]2)cc1 [Example 95, (E)-4-(1,3-bis(cyclohexylmethyl)-1,2,3,6-tetrahydro-2,6-dioxo-9H-purin-8-yl)cinnamic Acid N,N-Bis Triethylene Glycol Methyl Ether Amide] | 1700 ± 690
4 | COCCOCCOCCOCCOCCOCCOCCOCCOCCOC(=O)/C=C/c1ccc(-c2nc3c(=O)n(CC4CCCCCC4)c(=O)n(CC4CCCCCC4)c3[nH]2)cc1 [Example 40, (E)-4-(1,3-bis(cycloheptylmethyl)-1,2,3,6-tetrahydro-2,6-dioxo-9H-purin-8-yl)cinnamic Acid Nonaethylene Glycol Methyl Ether Ester] | 14 ± 7
5 | COCCOCCOCCOCCOCCOCCOCCOCCOCCOC(=O)/C=C/c1ccc(-c2nc3c(c(=O)n(CC4CCCCC4)c(=O)n3CC3CCCCC3)n2CC#N)cc1 [Example 87, (E)-4-(1,3-Bis(cyclohexylmethyl)-2,3,6,7-tetrahydro-2,6-dioxo-7-(cyanomethyl)-1H-purin-8-yl)cinnamic Acid Nonaethylene Glycol Methyl Ether Ester] | 37 ± 13
6 | COCCOCCOCCOCCOCCOCCOCCOCCOCCNC(=O)c1ccc(-c2nc3c(c(=O)n(CC4CCCCC4)c(=O)n3CC3CCCCC3)n2Cc2ccccc2)cc1 [Example 93, 4-(1,3-Bis(cyclohexylmethyl)-2,3,6,7-tetrahydro-2,6-dioxo-7-benzyl-1H-purin-8-yl)benzoic Add Nonaethylene Glycol Methyl Ether Amide] | 69 ± 97
7 | COCCOCCOCCOCCOCCOCCOCCOCCOCCOC(=O)/C=C/c1ccc(-c2nc3c(c(=O)n(CC4CCCCC4)c(=O)n3CC3CCCCC3)n2CC(=O)c2ccccc2)cc1 [Example 78, (E)-4-(1,3-Bis(cyclohexylmethyl)-2,3,6,7-tetrahydro-2,6-dioxo-7-(2-oxo-2-phenylethyl)-1H-purin-8-yl)cinnamic Acid Nonaethylene Glycol Methyl Ether Ester] | 0.1 ± 0.09
8 | COCCOCCOCCOCCOCCOCCOCCOCCOCCOC(=O)/C=C/c1ccc(-c2nc3c(=O)n(Cc4ccc(F)cc4)c(=O)n(Cc4ccc(F)cc4)c3[nH]2)cc1 [Example 58, (E)-4-(1,3-bis(4-fluorobenzyl)-1,2,3,6-tetrahydro-2,6-dioxo-9H-purin-8-yl)cinnamic Acid Nonaethylene Glycol Methyl Ether Ester] | < 0.1

The remaining molecules from weak to strong by IC50, led by results:

Row | IC50 [nM] | SMILES
9 | 2000 ± 820 | COCCOCCOCCOCCOCCOCCOCCOCCOCCNC(=O)/C=C/c1cccc(-c2nc3c(=O)n(CC4CCCCC4)c(=O)n(CC4CCCCC4)c3[nH]2)c1 [Example 67, (E)-3-(1,3-bis(cyclohexylmethyl)-1,2,3,6-tetrahydro-2,6-dioxo-9H-purin-8-yl)cinnamic Acid Nonaethylene Glycol Methyl Ether Amide]
10 | 200 ± 80 | COCCOCCOCCOCCOCCOCCOCCOCCOCCOC(=O)/C=C/c1ccc(-c2nc3c(c(=O)n(C)c(=O)n3CC3CCCCC3)n2C)cc1 [Example 105, (E)-4-[(3-Cyclohexylmethyl)-2,3,6,7-tetrahydro-2,6dioxo-1,7-dimethyl-1H-purin-8-yl]cinnamic Acid Nonaethylene Glycol Methyl Ether Ester]
11 | 160 ± 70 | COCCOCCOCCOCCOCCOCCOCCOCCOCCOC(=O)/C=C/c1ccc(-c2nc3c(=O)n(CC4CCCCC4)c(=O)n(C)c3[nH]2)cc1 [Example 56, (E)-4-((1-cyclohexylmethyl-3-methyl)-1,2,3,6-tetrahydro-2,6-dioxo-9H-purin-8-yl)cinnamic Acid Nonaethylene Glycol Methyl Ether Ester]
12 | 98 ± 33 | CCCn1c(=O)c2nc(-c3ccc(/C=C/C(=O)OCCOCCOCCOCCOCCOCCOCCOCCOCCOC)cc3)[nH]c2n(CCC)c1=O [Example 37, (E)-4-(1,3-bis(propyl)-1,2,3,6-tetrahydro-2,6-dioxo-9H-purin-8-yl)cinnamic Acid Nonaethylene Glycol Methyl Ether Ester]
13 | 86 ± 54 | COCCOCCOCCOCCOCCOCCOCCOCCOCCOC(=O)/C=C/c1ccc(-c2nc3c(c(=O)[nH]c(=O)n3CC3CCCCC3)n2C)cc1 [Example 104, (E)-4-[(3-Cyclohexylmethyl)-2,3,6,7-tetrahydro-2,6dioxo-7-methyl-1H-purin-8-yl]cinnamic Acid Nonaethylene Glycol Methyl Ether Ester]
14 | 76 ± 28 | COCCOCCOCCOCCOCCOCCOCCOCCOCCOC(=O)/C=C/c1ccc(-c2nc3c(=O)n(Cc4ccccc4F)c(=O)n(Cc4ccccc4F)c3[nH]2)cc1 [Example 54, (E)-4-(1,3-bis(2-fluorobenzyl)-1,2,3,6-tetrahydro-2,6-dioxo-9H-purin-8-yl)cinnamic Acid Nonaethylene Glycol Methyl Ether Ester]
15 | 51 ± 45 | COCCOCCOCCOCCOCCOCCOCCOCCOCCOC(=O)/C=C/c1ccc(-c2nc3c(=O)n(CCc4ccccc4)c(=O)n(CCc4ccccc4)c3[nH]2)cc1 [Example 55, (E)-4-(1,3-bis(2-phenylethyl)-1,2,3,6-tetrahydro-2,6-dioxo-9H-purin-8-yl)cinnamic Acid Nonaethylene Glycol Methyl Ether Ester]
16 | 19 ± 16 | COCCOCCOCCOCCOCCOCCOCCOCCOCCOC(=O)/C=C/c1ccc(-c2nc3c(c(=O)n(CC4CCCCC4)c(=O)n3CC3CCCCC3)n2CN2CCOCC2)cc1 [Example 82, (E)-4-(1,3-Bis(cyclohexylmethyl)-2,3,6,7-tetrahydro-2,6-dioxo-7-(4-morpholinylmethyl)-1H-purin-8-yl)cinnamic Acid Nonaethylene Glycol Methyl Ether Ester]
17 | 12 ± 12 | COCCOCCOCCOCCOCCOCCOCCOCCOCCOC(=O)/C=C/c1ccc(-c2nc3c(=O)n(-c4ccccc4)c(=O)n(-c4ccccc4)c3[nH]2)cc1 [Example 42, (E)-4-(1,3-bis(phenyl)-1,2,3,6-tetrahydro-2,6-dioxo-9H-purin-8-yl)cinnamic Acid Nonaethylene Glycol Methyl Ether Ester]
18 | 9.6 ± 5 | COCCOCCOCCOCCOCCOCCOCCOCCOCCOC(=O)/C=C/c1ccc(-c2nc3c(c(=O)n(CC4CCCCC4)c(=O)n3CC3CCCCC3)n2Cc2ccccc2)cc1 [Example 77, (E)-4-(1,3-Bis(cyclohexylmethyl)-2,3,6,7-tetrahydro-2,6-dioxo-7-benzyl-1H-purin-8-yl)cinnamic Acid Nonaethylene Glycol Methyl Ether Ester]
19 | 7.1 ± 2 | COCCOCCOCCOCCOCCOCCOCCOCCOCCOC(=O)/C=C/c1ccc(-c2nc3c(=O)n(CC(C)C)c(=O)n(CC(C)C)c3[nH]2)cc1 [Example 43, (E)-4-(1,3-bis(2-methylpropyl)-1,2,3,6-tetrahydro-2,6-dioxo-9H-purin-8-yl)cinnamic Acid Nonaethylene Glycol Methyl Ether Ester]
